Test results: patent EP0966972B1, “Topical composition containing silicon gum” (Dow Corning France S.A., priority 1998, dated 1999)

Assay: Substantivity of silicone gum formulation on skin (FT-IR/ATR)
Type: in vivo, human
Settings: 10 seconds after spraying
Description: The forearms of volunteers were cleaned and then sprayed in several areas with the formulation of Example 4. […] A FT-IR/ATR cell was used to take an IR spectrum at each area sprayed. […] An IR of the cleansed forearm skin was used as a control blank. The percentage of silicone remaining on the skin was calculated by comparing the height of the specific silicon peak height (1255 cm^-1)/ specific skin peak height (1538 cm^-1) in the blank test.

Compound: C[Si](C)(C)O[Si](C)(C)C [HMDS, hexamethyldisiloxane]
- detectability on the skin: not detectable
